Results: paper PMC6241247, “Development and Application of an UHPLC-MS/MS Method for Comparative Pharmacokinetic Study of Eight Major Bioactive Components from Yin Chen Hao Tang in Normal and Acute Liver Injured Rats” (Evidence-based Complementary and Alternative Medicine : eCAM, 2018)

Tests used:
[1] = Plasma pharmacokinetics after oral administration of YCHT in model (CCl4-induced acute liver injury) rats, UHPLC-MS/MS; conditions: for Fr (relative bioavailability): Fr = (AUCmodel/AUCcontrol)∗100%; for Fr (relative bioavailability) / AUC0–t / AUC0–∞: oral YCHT 60 g/kg; for CL/F / Cmax / MRT inf / MRT last / Tmax / half-life: Sprague-Dawley, rat, in vivo, po, 60 g/kg; for AUC0–t / AUC0–∞: model (CCl4 liver injured) rats, plasma, n = 6
Experimental: The quality control (QC) and plasma samples were analyzed by an Agilent 6470 triple quadrupole LC–MS system (Agilent Technologies, Inc., Santa Clara, CA, USA), which consists of an Agilent 1290 Infinity II system connected to a triple quadrupole MS analyzer with an Agilent Jet Stream technologies electrospray ionization (ESI) interface. The Agilent 1290 LC system is equipped with degasser (G7116B), high speed pump (G7120A) and multisampler (G7167B). The samples (2 μL) were injected into the LC system. A MassHunter workstation was applied for LC–MS control and data acquisition.
Chromatographic separation was conducted with a CAPCELL PAK ADME (2.1 mm × 100 mm, 3 μm; Shiseido Co., Ltd., Tokyo, Japan). The mobile phase included 0.1% formic acid (A) and methanol (B), and the flow rate was 0.3 mL/min. Iridoid glycosides and anthraquinones were detected in the isocratic elution, which was kept 80% B for 5.5 min in the negative mode. The others were separated in the positive mode with another gradient program, which was maintained at 45% B for 0.5 min, then increased to 95% B in 2 min, and maintained at 95% B until 4.5 min, and the post time is 2 min.
The optimal parameters for the ESI interface were as follows: nebulizer, 45 psi; dry gas, 10 L/min; dry temp, 350°C; sheath gas, 11 L/min; sheath gas temp, 350°C; capillary voltage, 4000 V (in the positive mode) and 3500 V (in the negative mode); and delta EMV, 200 V. The MS parameters for iridoid glycosides and anthraquinones were improved in the negative mode, and the MS parameters for the other analytes were improved in positive mode.
The animals were randomly divided into the control group (n = 6) and the model group (n = 6): the model rats, i.e., acute liver injury rats, were induced by intraperitoneal injections of CCl4 diluted with olive oil (1:1, v/v) at a dose of 1.5 mL/kg.bw every day for three days, and the rats in the control group were administered with olive oil.
After being thawed at room temperature, 100 μL plasma was put in a 1.5 mL centrifuge tube, and then 100 μL IS solution and 300 μL acetonitrile was added. After the mixture was vortexed for 1 min, it was centrifuged at 12000 rpm for 10 min at 4°C to precipitate the protein. Then the supernatant was transferred to another clean centrifuge tube, and evaporated to dryness under nitrogen stream, the residue was reconstituted in 50 μL methanol-water (1:1, v/v). After centrifuging at 12000 rpm for 10 min at 4°C again, a 2 μL aliquot of supernatant was injected for LC–MS/MS analysis.
The validated method was used for the pharmacokinetic study. Standard diet was withheld over night before oral administration of YCHT, but with free access to water. And YCHT (60 g/kg) was administered to the rats by gastric perfusion, equivalent to 10.09 mg/kg of scoparone, 0.49 mg/kg scopoletin, 17.16 mg/kg of geniposide, 9.86 mg/kg of rhein, 2.66 mg/kg of aloe-emodin, 2.24 mg/kg of chrysophanol, 0.83 mg/kg of emodin, and 0.58 mg/kg of physcion.
A series of blood samples (0.3 mL) were collected from the rats' postorbital venous plexuses at 0 (pre-dose), 5, 10, 15, 30, 45, 60, 90, 120, 240, 480, 600, 720 and 1440 min, and put into heparinized tubes. The heparinized plasma was immediately centrifuged to separate at 3000 g for 10 min and stored at −80°C before experiments. The analytes' concentrations in plasma were determined by LC–MS/MS methods described above.
The plasma concentrations were expressed as arithmetic mean ± standard deviation (SD). And the mean concentration–time curves were calculated and plotted by DAS (version 3.0, Bio Guider Co., Shanghai, China), and the PK parameters consist of elimination half-life (t1/2), area under the plasma concentration-time curve (AUC), and mean residence time (MRT). The maximum plasma concentrations (Cmax) and corresponding peak time (Tmax) were obtained from the observed data directly.

[2] = Plasma pharmacokinetics after oral administration of YCHT in control (normal) rats, UHPLC-MS/MS; assay type: in vivo, Sprague-Dawley rats; conditions: for CL/F / Cmax / MRT inf / MRT last / Tmax / half-life: Sprague-Dawley, rat, in vivo
Excerpt: The validated method was used for the pharmacokinetic study.
P<0.05 represented statistical significance.

[3] = control rats, oral YCHT 60 g/kg, plasma, n = 6
[4] = control rats, oral YCHT 60 g/kg, plasma, n = 6, read-out: CLz/F (converted)
[5] = control rats, oral YCHT 60 g/kg, plasma, n = 6, read-out: MRT0–t
[6] = control rats, oral YCHT 60 g/kg, plasma, n = 6, read-out: MRT0–∞
[7] = control rats, oral YCHT 60 g/kg, plasma, n = 6, read-out: Tmax
[8] = control rats, oral YCHT 60 g/kg, plasma, n = 6, read-out: t 1/2 (converted)

Row | Structure (SMILES) | Fr (relative bioavailability) [1] [%] | CL/F [1] [mL/min/kg] | Cmax [1] [ng/mL] | MRT inf [1] [h] | MRT last [1] [h] | Tmax [1] [h] | half-life [1] [h] | AUC0–t [1] | AUC0–∞ [1] | CL/F ([2]; po, 60 g/kg) [mL/min/kg] | Cmax ([2]; po, 60 g/kg) [ng/mL] | MRT inf ([2]; po, 60 g/kg) [h] | MRT last ([2]; po, 60 g/kg) [h] | Tmax ([2]; po, 60 g/kg) [h] | half-life ([2]; po, 60 g/kg) [h] | AUC0–t [2, 3] [ug/L∗h] | AUC0–∞ [2, 3] [ug/L∗h] | CL/F [2, 4] [mL/min/kg] | MRT last [2, 5] [h] | MRT inf [2, 6] [h] | other results
1 | O=C(O)c1cc(O)c2c(c1)C(=O)c1cccc(O)c1C2=O [Rhein] | 268.45 | 31.2 | 1760 ± 140 | 4.67 ± 0.65 | 4.38 ± 0.41 | 0.54 ± 0.19 | 3.62 ± 1.97 | 5453.29 ± 1202.14∗∗ ug/L∗h | 5518.78 ± 1256.46∗∗ ug/L∗h | 82 | 664 ± 50.3 | 5.38 ± 0.49 | 4.79 ± 0.36 | 0.33 ± 0.13 | 4.64 ± 2.14 | 2031.40 ± 385.58 | 2074.39 ± 387.77 | – | – | – | –
2 | O=C1c2cccc(O)c2C(=O)c2c(O)cc(CO)cc21 [Aloe-emodin] | 281.30 | 283 | 36.7 ± 3.09 | 4.07 ± 0.4 | 3.68 ± 0.34 | 0.58 ± 0.3 | 1.98 ± 0.71 | 153.62 ± 18.13∗∗ ug/L∗h | 158.71 ± 19.26∗∗ ug/L∗h | – | – | – | – | – | – | 54.61 ± 6.50 | 60.86 ± 6.68 | 737 | 3.34 ± 0.12 | 4.33 ± 0.84 | Cmax ([2]; control rats, oral YCHT 60 g/kg, plasma, n = 6, read-out: Cmax): 15.2 ± 1.68 ng/mL; Tmax [2, 7]: 0.54 ± 0.19 h; half-life [2, 8]: 2.26 ± 1.15 h
3 | COc1cc(O)c2c(c1)C(=O)c1cc(C)cc(O)c1C2=O [Physcion] | 213.68 | 211 | 9.99 ± 2.86 | 5.26 ± 1.3 | 4.07 ± 0.4 | 2.58 ± 1.11 | 3.06 ± 2.37 | 44.98 ± 13.92∗∗ ug/L∗h | 48.47 ± 12.74∗∗ ug/L∗h | 450 | 8.45 ± 1.61 | 3.54 ± 0.49 | 2.88 ± 0.25 | 1.25 ± 0.27 | 2.65 ± 0.99 | 21.05 ± 4.04 | 22.44 ± 5.54 | – | – | – | –
4 | COC(=O)C1=CO[C@@H](O[C@@H]2O[C@H](CO)[C@@H](O)[C@H](O)[C@H]2O)[C@@H]2C(CO)=CC[C@H]12 [Geniposide] | 257.67 | 55.7 | 1860 ± 109 | 5.99 ± 0.61 | 4.68 ± 0.57 | 0.58 ± 0.2 | 6.59 ± 2.46 | 5000.36 ± 755.13∗∗ ug/L∗h | 5223.83 ± 746.92∗∗ ug/L∗h | – | – | – | – | – | – | 1940.63 ± 210.72 | 1958.65 ± 206.96 | 147 | 4.57 ± 0.41 | 4.8 ± 0.47 | Cmax ([2]; 60 g/kg, normal group, oral YCHT, read-out: Cmax): 751 ± 47.7 ng/mL; Tmax [2, 7]: 0.33 ± 0.13 h; half-life [2, 8]: 3.55 ± 0.38 h
